The source of these data is patent US6180637A, “1,2,5-trisubstituted 1,2-dihydroindazol-3-ones having anti-asthmatic, anti-allergic, anti-inflammatory, immunomodulating and neuroprotective action, process for their preparation and their use as medicaments” (Arzneimittelwerk Dresden GmbH, priority 1998, dated 2001).

The target in one test is human cyclophilin B (Homo sapiens, UniProt P23284). Put plainly: Peptidylprolyl isomerase (PPIase) activity inhibition assay. The format is biochemical. The following applies: 10 μM compound; 10 nmol Cyp B, preincubated at 4° C. for 15 minutes; test peptide Suc-Ala-Ala-Pro-Phe-Nan. On the procedure: For the initial screening (10 μmol/l), the inhibition of the human cyclophilin B in the PPIase test is determined.
Chain of human cyclophilin B (P23284 34-216): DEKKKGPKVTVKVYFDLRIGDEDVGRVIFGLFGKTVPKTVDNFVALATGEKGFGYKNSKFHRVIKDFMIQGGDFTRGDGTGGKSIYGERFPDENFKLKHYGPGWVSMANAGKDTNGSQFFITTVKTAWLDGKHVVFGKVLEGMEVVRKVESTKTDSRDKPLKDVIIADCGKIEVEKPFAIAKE
Assay for the determination of the peptidylprolyl isomerase (PPIase) activity and inhibition
The PPIase activity is tested according to a globally customary enzyme test: G. Fischer, H. Bang, C. Mech, Biomed. Biochim. Acta 43 1101-1111; G. Fischer, H. Bang, A. Schellenberger, Biochim. Biophys. Acta 791 (1984), 87-97; D. H. Rich et al., J. Med. Chem. 38 (1995), 4164-4170.
The compounds of the general formula I according to the invention are preincubated at 4° C. for 15 minutes together with 10 nmol of Cyp B. The enzyme reaction is started using the test peptide Suc-Ala-Ala-Pro-Phe-Nan after addition of chymotrypsin and HEPES buffer. The extinction change at 390 nm is then monitored and evaluated. The photometrically determined extinction change results from two sub-reactions: a) the rapid chymotryptic cleavage of the trans-peptide; b) the non-enzymatic cis-trans isomerization, which is catalysed by cyclophilins.

In test [1] the test system is pulmonary eosinophil infiltration. Briefly: Inhibition of late-phase eosinophilia 24 h after inhalational ovalbumin challenge in actively sensitized guinea-pigs. The class given is in vivo, guinea-pig. Conditions: 2 × 30 mg/kg i.p. -2h/+4h, BAL 24 h after OVA challenge. The protocol: Inhibition of late-phase eosinophilia 24 h after inhalational ovalbumin challenge in actively sensitized guinea-pigs
The inhibition of pulmonary eosinophil infiltration by the substances is tested in an in vivo test on male Dunkin-Hartley guinea-pigs (200-250 g) sensitized against ovalbumin (OVA). The sensitization is carried out by means of two intraperitoneal injections of a suspension of 20 μg of OVA together with 20 mg of aluminium hydroxide as an adjuvant in 0.5 ml of physiological saline solution per animal on two successive days. 14 days after the second injection, the animals are pretreated with mepyramine maleate (10 mg/kg i.p.) in order to protect them from anaphylactic death. 30 minutes later, the animals are exposed for 30 sec in a plastic box to an OVA aerosol (0.5 mg/ml) which is generated by a nebulizer driven by compressed air (19.6 kPa) (allergen challenge). Control animals are nebulized with physiological saline solution. […] The eosinophils are stained using the Becton-Dickinson test kit (N. 5877) for eosinophils and counted in a Neubauer chamber. […]
The percentage inhibition of the eosinophilia of the test group treated with substance is calculated according to the following formula: […]

Each structure is given as a SMILES string.

The compound `COc1ccc(S(=O)(=O)n2c3ccc(OC)cc3c(=O)n2Cc2cc([N+](=O)[O-])ccc2O)cc1` [Example 1, 2-(2-Hydroxy-5-nitrobenzyl)-5-methoxy-1-(4-methoxybenzenesulphonyl)-1,2-dihydroindazol-3-one] showed an inhibition at 10 µM against human cyclophilin B of 70%. Further, in test [1] (OVA-sensitized guinea-pigs), the “Inhibition [%] of eosinophilia” value is listed as 97%. Also, the “Eosinophils million/animal x ± s, B” value in test [1] (group B (test group treated with substance)) is 0.51 ± 0.25 million/animal.
As for `COc1ccc2c(c1)c(=O)n(Cc1cc([N+](=O)[O-])ccc1O)n2S(=O)(=O)c1ccc(C)cc1` [Example 2, 2-(2-hydroxy-5-nitrobenzyl)-5-methoxy-1-(toluene-4-sulphonyl)-1,2-dihydroindazol-3-one], the inhibition at 10 µM on human cyclophilin B is 50%.
On the same count and under the same terms, next, `COc1ccc2c(c1)c(=O)n(Cc1cc([N+](=O)[O-])ccc1O)n2S(=O)(=O)c1ccc(OC(F)(F)F)cc1` [Example 3, 2-(2-hydroxy-5-nitrobenzyl)-5-methoxy-1-(4-trifluoro-methoxybenzenesulphonyl)-1,2-dihydroindazol-3-one]: 93%; `COc1ccc2c(c1)c(=O)n(Cc1cc([N+](=O)[O-])ccc1O)n2S(=O)(=O)c1ccc(Cl)cc1` [Example 4, 2-(2-hydroxy-5-nitrobenzyl)-5-methoxy-1-(4-chloro-benzenesulphonyl)-1,2-dihydroindazol-3-one]: 90%; `COc1ccc2c(c1)c(=O)n(Cc1cc([N+](=O)[O-])ccc1O)n2S(=O)(=O)c1ccc(F)cc1` [Example 5, 1-(4-fluorobenzenesulphonyl)-2-(2-hydroxy-5-nitrobenzyl)-5-methoxy-1,2-dihydroindazol-3-one]: 67%.
Still for that read-out and setting: next, `CSc1ccc2c(c1)c(=O)n(Cc1cc([N+](=O)[O-])ccc1O)n2Cc1ccc(Cl)c(Cl)c1` [Example 26, 1-(3,4-Dichlorobenzyl)-2-(2-hydroxy-5-nitrobenzyl)-5-methylthio-1,2-dihydroindazol-3-one hydrate]: 98%.

As usually defined, the inhibition is the drop in the measured response relative to a control, in per cent. A high value points to strong suppression.
